This assay has as its system methane production in human stool. Put plainly: Methane production in human stool homogenates of IBS-C patients (head gas analysed by gas chromatography). It counts as cell-based. To be noted: stool homogenates of methane-producing human IBS-C patients, anaerobic chamber; 0.5, 1, 5 and 10 mg of statin per g of stool; head gas at baseline, 90 minute intervals for 3 hours and overnight (~720 min); FIG. 4. The method, then: Fresh stool samples were provided by two methane-producing human IBS-C patients (breath methane>10 ppm) who had provided an informed consent. Different concentrations of stool from each patient were homogenized in deoxygenated PBS (3 ml PBS/2 g stool) inside an anaerobic incubation chamber. Plead gas was extracted through a stopcock at various timepoints ([…], and following overnight incubation) and methane levels in the head gas at each timepoint were analyzed by gas chromatography using a Quintron SC gas chromatograph (Quintron Instrument Company, Milwaukee, Wis.).
The effects of lovastatin lactone, lovastatin ß-hydroxyacid and lovastatin diol on methane production were evaluated by incubating various concentrations of these molecules (0 mg, 0.5 mg, 1 mg, 5 mg and 10 mg of statin per g of human stool) with human stool homogenates in an anaerobic chamber as described above. Plead gas samples were drawn from each flask for methane analysis at baseline and at 90 minute intervals for 3 hours, followed by a final sample after overnight incubation (˜720 min).
Take `CC[C@H](C)C(=O)O[C@H]1C[C@@H](C)C=C2C=C[C@H](C)[C@H](CC[C@@H](O)C[C@@H](O)CC(=O)O)[C@H]21` [lovastatin R-hydroxyacid, lovastatin ß-hydroxyacid]: the “inhibition of methane production in human stool” value (from here on “inhibition of methane production”) was “ineffective as an inhibitor of methane production”.
`CC[C@H](C)C(=O)O[C@H]1C[C@@H](C)C=C2C=C[C@H](C)[C@H](CC[C@@H]3C[C@@H](O)CC(=O)O3)[C@H]21` [Lovastatin lactone, lovastatin lactone]: the “inhibition of methane production” value is on record as “effective inhibitors of methane production”.
`C[C@H]1C=C2C=C[C@H](C)[C@H](CCC3C[C@@H](O)CC(=O)O3)[C@H]2[C@@H](O)C1` (stereo partly drawn) [lovastatin diol lactone]: the “inhibition of methane production” value was “effective inhibitors of methane production”.

The record behind these values is patent publication US11590102B2, “Anti-methanogenic lovastatin analogs or derivatives and uses thereof” (CEDARS-SINAI MEDICAL CENTER, priority 2015, dated 2023).
